Reference: paper PMC2830944, “Purification and functional characterization of protoplasts and intact vacuoles from grape cells” (BMC Research Notes, 2010)

Legend:
[1] = test system: T1, V-ATPase (vacuolar ATPase, V-H+-ATPase); experiment: ACMA fluorescence quenching, initial velocity of proton pumping in intact vacuoles; assay type: biochemical, Vitis vinifera; details: 100 mM KCl, 2 mM MgCl2, 0.1% BSA, 10 mM MOPS-Tris pH 7.2, 2 μM ACMA; 0.05 to 1.5 mM ATP
T1 construct: gene VHA-A; native multisubunit complex in intact vacuoles isolated from protoplasts of cultured grape berry cells

[2] = test system: V-PPase (vacuolar inorganic pyrophosphatase, V-H+-PPase); details: 100 mM KCl, 2 mM MgCl2, 0.1% BSA, 10 mM MOPS-Tris pH 7.2, 2 μM ACMA; 0.1 to 150 μM PPi

Row | Km [1] | Km [2] | SMILES
1 | 340 µM |  | Nc1ncnc2c1ncn2[C@@H]1O[C@H](COP(=O)(O)OP(=O)(O)OP(=O)(O)O)[C@@H](O)[C@H]1O [ATP]
2 |  | 2 µM | O=P(O)(O)OP(=O)(O)O [PPi]
